These results are taken from patent US8471005B2 (Cephalon, Inc., priority 2008, dated 2013).

Test [1] concerns the target T1, ALK (Homo sapiens, UniProt Q9UM73).
T1 construct: host or cells: baculovirus expression system
The test can be described thus: ALK Kinase Assay (ELISA/TRF, PLC-γ substrate). In kind it is biochemical. Conditions: ALK kinase inhibition, 1 μM ATP; read-out: ALK Potency. The method in brief: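 PLC-γ substrate coated at 10 μg/mL in TBS; reaction started with 30 ng/ml ALK, run 15 min at 37° C. Phosphoproduct detected by TRF with Eu-N1-labeled PT66 anti-phosphotyrosine antibody. IC50 from sigmoidal variable-slope fit of percent inhibition versus log concentration.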
(In general: ELISA stands for enzyme-linked immunosorbent assay.)

Test [2] addresses T2, JAK2 (Homo sapiens, UniProt O60674).
T2 construct: host or cells: baculovirus expression system
As to the kind of experiment: Recombinant Human JAK2 Kinase Assay (TRF). In kind it is biochemical. The following applies: JAK2 kinase inhibition, 0.2 μM ATP; read-out: JAK2 Potency. In short, it runs like this: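 Europium-labelled PY100 antibody reported tyrosine phosphorylation of a Neutravidin-captured biotinyl 15-mer peptide by JAK2 (baculovirus-expressed, 15 ng/ml). Conditions: 20 mM HEPES pH 7.2, 0.2 μM ATP, 1 mM MnCl2, 0.1% BSA, DMSO 2.5% final, 20 min at room temperature.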

T1 sequence (Q9UM73 19-1620): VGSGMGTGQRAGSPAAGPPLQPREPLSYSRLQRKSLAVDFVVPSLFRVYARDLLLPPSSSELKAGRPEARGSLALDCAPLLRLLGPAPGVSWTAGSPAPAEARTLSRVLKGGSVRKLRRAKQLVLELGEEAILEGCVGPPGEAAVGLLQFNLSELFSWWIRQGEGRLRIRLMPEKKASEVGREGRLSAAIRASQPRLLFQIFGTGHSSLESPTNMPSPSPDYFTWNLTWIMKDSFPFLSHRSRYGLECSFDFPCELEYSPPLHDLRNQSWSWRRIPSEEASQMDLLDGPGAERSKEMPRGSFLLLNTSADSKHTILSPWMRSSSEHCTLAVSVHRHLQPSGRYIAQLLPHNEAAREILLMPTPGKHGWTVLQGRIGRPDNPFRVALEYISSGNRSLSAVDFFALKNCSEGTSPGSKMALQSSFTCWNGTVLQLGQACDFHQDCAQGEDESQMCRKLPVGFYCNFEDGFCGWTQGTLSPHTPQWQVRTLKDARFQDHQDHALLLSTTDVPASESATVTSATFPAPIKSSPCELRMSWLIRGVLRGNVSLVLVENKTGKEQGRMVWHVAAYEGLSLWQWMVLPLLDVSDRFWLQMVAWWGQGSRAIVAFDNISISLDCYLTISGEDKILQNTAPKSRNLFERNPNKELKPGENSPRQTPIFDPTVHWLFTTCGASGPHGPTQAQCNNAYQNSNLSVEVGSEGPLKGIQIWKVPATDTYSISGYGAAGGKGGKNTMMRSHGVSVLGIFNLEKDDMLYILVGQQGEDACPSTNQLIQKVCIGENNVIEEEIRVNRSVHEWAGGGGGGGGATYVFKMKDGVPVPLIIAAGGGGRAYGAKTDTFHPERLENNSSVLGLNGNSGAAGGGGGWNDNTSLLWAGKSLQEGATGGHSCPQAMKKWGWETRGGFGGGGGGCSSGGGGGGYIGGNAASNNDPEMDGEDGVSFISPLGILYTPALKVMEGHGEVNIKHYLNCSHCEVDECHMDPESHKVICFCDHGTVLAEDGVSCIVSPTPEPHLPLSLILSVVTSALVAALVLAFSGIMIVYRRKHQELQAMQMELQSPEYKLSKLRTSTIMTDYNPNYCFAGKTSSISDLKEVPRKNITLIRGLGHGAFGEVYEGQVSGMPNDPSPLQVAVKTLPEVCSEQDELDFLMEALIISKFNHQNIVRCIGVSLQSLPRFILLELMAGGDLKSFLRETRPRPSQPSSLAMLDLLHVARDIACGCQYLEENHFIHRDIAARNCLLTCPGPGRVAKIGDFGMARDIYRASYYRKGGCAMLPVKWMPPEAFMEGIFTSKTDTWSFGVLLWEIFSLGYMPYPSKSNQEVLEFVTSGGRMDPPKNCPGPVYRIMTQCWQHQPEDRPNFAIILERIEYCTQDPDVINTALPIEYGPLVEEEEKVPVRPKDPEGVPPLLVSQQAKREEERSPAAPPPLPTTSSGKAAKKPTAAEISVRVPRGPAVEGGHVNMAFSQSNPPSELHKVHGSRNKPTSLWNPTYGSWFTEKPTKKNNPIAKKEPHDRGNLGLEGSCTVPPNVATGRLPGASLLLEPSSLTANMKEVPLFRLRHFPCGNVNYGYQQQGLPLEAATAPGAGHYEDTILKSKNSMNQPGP
T2 sequence (O60674 whole entry): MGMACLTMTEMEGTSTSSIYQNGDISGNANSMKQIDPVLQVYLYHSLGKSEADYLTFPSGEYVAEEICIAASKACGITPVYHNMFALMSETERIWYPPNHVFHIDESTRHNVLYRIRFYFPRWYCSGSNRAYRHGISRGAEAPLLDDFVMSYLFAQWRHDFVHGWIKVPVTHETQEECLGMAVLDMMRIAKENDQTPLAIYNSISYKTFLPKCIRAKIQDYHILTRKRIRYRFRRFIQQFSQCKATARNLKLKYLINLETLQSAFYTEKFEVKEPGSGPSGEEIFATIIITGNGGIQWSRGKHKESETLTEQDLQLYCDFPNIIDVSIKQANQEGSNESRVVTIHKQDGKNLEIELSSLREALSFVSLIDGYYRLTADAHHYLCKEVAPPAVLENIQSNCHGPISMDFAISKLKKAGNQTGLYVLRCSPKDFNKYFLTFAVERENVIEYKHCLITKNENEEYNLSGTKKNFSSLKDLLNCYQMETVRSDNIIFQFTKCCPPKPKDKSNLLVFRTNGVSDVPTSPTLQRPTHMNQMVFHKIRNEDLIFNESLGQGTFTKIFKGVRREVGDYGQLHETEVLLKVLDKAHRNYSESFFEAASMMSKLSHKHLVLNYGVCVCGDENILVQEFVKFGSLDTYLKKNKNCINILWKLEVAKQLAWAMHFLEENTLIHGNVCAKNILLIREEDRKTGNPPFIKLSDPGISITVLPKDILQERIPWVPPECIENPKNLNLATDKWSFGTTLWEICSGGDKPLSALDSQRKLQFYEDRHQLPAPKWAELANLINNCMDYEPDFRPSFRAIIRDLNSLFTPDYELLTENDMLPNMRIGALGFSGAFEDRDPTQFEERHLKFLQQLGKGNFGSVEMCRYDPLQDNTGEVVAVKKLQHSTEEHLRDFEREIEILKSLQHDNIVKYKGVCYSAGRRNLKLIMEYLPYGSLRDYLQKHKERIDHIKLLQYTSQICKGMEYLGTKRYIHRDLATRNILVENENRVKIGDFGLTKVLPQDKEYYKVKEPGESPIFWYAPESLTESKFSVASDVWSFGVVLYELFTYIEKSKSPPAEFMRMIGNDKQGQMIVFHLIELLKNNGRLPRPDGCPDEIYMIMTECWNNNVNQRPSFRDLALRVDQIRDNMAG

As for `COc1cc(C2CCN(CC(N)=O)CC2)ccc1Nc1ncc2ccc(-c3cccnc3N(C)S(C)(=O)=O)n2n1` [Example 1257, 2-[4-(4-{7-[2-(Methanesulfonyl-methyl-amino)-pyridin-3-yl]-pyrrolo[2,1-f][1,2,4]triazin-2-ylamino}-3-methoxy-phenyl)-piperidin-1-yl]-acetamide], the IC50 was below 100 nM in test [1] and 1000 to 10000 nM in test [2].
For the compound `CN(c1ncccc1-c1ccc2cnc(Nc3ccc(C4CCN(CC(N)=O)CC4)cc3)nn12)S(C)(=O)=O` [Example 1258, 2-[4-(4-{7-[2-(Methanesulfonyl-methyl-amino)-pyridin-3-yl]-pyrrolo[2,1-f][1,2,4]triazin-2-ylamino}-phenyl)-piperidin-1-yl]-acetamide], the IC50 in test [1] and in test [2] was below 100 nM throughout.
Regarding `COc1cc(C2CCN(CC(N)=O)CC2)ccc1Nc1ncc2c(O)cc(-c3ccccc3N(C)S(C)(=O)=O)n2n1` [Example 1259, 2-[4-(4-{5-Hydroxy-7-[2-(methanesulfonyl-methyl-amino)-phenyl]-pyrrolo[2,1-f][1,2,4]triazin-2-ylamino}-3-methoxy-phenyl)-piperidin-1-yl]-acetamide], the values for the IC50 in test [1] and in test [2] were below 100 nM and 1000 to 10000 nM, respectively.
`COc1ccccc1-c1cc(O)c2cnc(Nc3ccc(C4CCN(CC(N)=O)CC4)cc3)nn12` [Example 1260, 2-(4-{4-[5-Hydroxy-7-(2-methoxy-phenyl)-pyrrolo[2,1-f][1,2,4]triazin-2-ylamino]-phenyl}-piperidin-1-yl)-acetamide]: the values for the IC50 in test [1] and in test [2] were 100 to 1000 nM and below 100 nM, respectively.
As for `COc1cc(C2CCN(CC(N)=O)CC2)ccc1Nc1ncc2c(C)cc(-c3ccccc3OC)n2n1` [Example 1262, 2-(4-{3-Methoxy-4-[7-(2-methoxy-phenyl)-5-methyl-pyrrolo[2,1-f][1,2,4]triazin-2-ylamino]-phenyl}-piperidin-1-yl)-acetamide], the IC50 in test [1] was below 100 nM; in test [2], 100 to 1000 nM.
`COc1cc(C2CCNCC2)ccc1Nc1ncc2c(C)cc(-c3ccccc3N(C)S(C)(=O)=O)n2n1` [Example 1263, N-{2-[2-(2-Methoxy-4-piperidin-4-yl-phenylamino)-5-methyl-pyrrolo[2,1-f][1,2,4]triazin-7-yl]-phenyl}-N-methyl-methanesulfonamide]: the values for the IC50 in test [1] and in test [2] were below 100 nM and 100 to 1000 nM, respectively.
On to `COCCOc1ccccc1-c1ccc2cnc(Nc3ccc(C4CCN(CC(N)=O)CC4)cc3OC)nn12` [Example 1271, 2-[4-(3-Methoxy-4-{7-[2-(2-methoxy-ethoxy)-phenyl]-pyrrolo[2,1-f][1,2,4]triazin-2-ylamino}-phenyl)-piperidin-1-yl]-acetamide], for which the IC50 in test [1] was in the range of 100 to 1000 nM; in test [2], 1000 to 10000 nM.
In the same order, the values of `COc1cc(N2CCC(N3CCOCC3)CC2)ccc1Nc1ncc2ccc(-n3cccn3)n2n1` [Example 1272, [2-Methoxy-4-(4-morpholin-4-yl-piperidin-1-yl)-phenyl]-(7-pyrazol-1-yl-pyrrolo[2,1-f][1,2,4]triazin-2-yl)-amine] are 100 to 1000 nM and 1000 to 10000 nM.
Turning to `COc1ccc(-c2ccc3cnc(Nc4ccc(C5CCN(CC(N)=O)CC5)cc4OC)nn23)c(N(C)S(C)(=O)=O)c1` [Example 1273, 2-[4-(4-{7-[2-(Methanesulfonyl-methyl-amino)-4-methoxy-phenyl]-pyrrolo[2,1-f][1,2,4]triazin-2-ylamino}-3-methoxy-phenyl)-piperidin-1-yl]-acetamide], the IC50 in test [1] was below 100 nM; in test [2], 1000 to 10000 nM.
In the case of `COc1cc(C2=CCN(CC(N)=O)CC2)ccc1Nc1ncc2ccc(-c3ccccc3OC)n2n1` [Example 1274, 2-(4-{3-Methoxy-4-[7-(2-methoxy-phenyl)-pyrrolo[2,1-f][1,2,4]triazin-2-ylamino]-phenyl}-3,6-dihydro-2H-pyridin-1-yl)-acetamide], the figures for the IC50 in test [1] and in test [2] were below 100 nM and 100 to 1000 nM, respectively.
In the same order, the values of `COc1cc(C2CCN(C(C)C(N)=O)CC2)ccc1Nc1ncc2ccc(-c3ccccc3OC)n2n1` (centres unmarked) [Example 1275, 2-(4-{3-Methoxy-4-[7-(2-methoxy-phenyl)-pyrrolo[2,1-f][1,2,4]triazin-2-ylamino]-phenyl}-piperidin-1-yl)-propionamide] are below 100 nM and 100 to 1000 nM.
For `COc1cc(C2CCN(CC(=O)N3CCNCC3)CC2)ccc1Nc1ncc2ccc(-c3ccccc3OC)n2n1` [Example 1276, 2-(4-{3-Methoxy-4-[7-(2-methoxy-phenyl)-pyrrolo[2,1-f][1,2,4]triazin-2-ylamino]-phenyl}-piperidin-1-yl)-1-piperazin-1-yl-ethanone], the IC50 in test [1] was below 100 nM; in test [2], 100 to 1000 nM.
In the same order, the values of `COc1cc(C2CCN(CC(=O)OC(C)(C)C)CC2)ccc1Nc1ncc2ccc(-c3ccccc3OC)n2n1` [Example 1277, (4-{3-Methoxy-4-[7-(2-methoxy-phenyl)-pyrrolo[2,1-f][1,2,4]triazin-2-ylamino]-phenyl}-piperidin-1-yl)-acetic acid tert-butyl ester] are 100 to 1000 nM and 1000 to 10000 nM.
With `COc1cc(C2CCN(CC(=O)O)CC2)ccc1Nc1ncc2ccc(-c3ccccc3OC)n2n1` [Example 1278, (4-{3-Methoxy-4-[7-(2-methoxy-phenyl)-pyrrolo[2,1-f][1,2,4]triazin-2-ylamino]-phenyl}-piperidin-1-yl)-acetic acid], the IC50 in test [1] was below 100 nM; in test [2] it was 100 to 1000 nM.
Regarding `COc1cc(C2CCN(CC(=O)NC(CO)CO)CC2)ccc1Nc1ncc2ccc(-c3ccccc3OC)n2n1` [Example 1279, N-(2-Hydroxy-1-hydroxymethyl-ethyl)-2-(4-{3-methoxy-4-[7-(2-methoxy-phenyl)-pyrrolo[2,1-f][1,2,4]triazin-2-ylamino]-phenyl}-piperidin-1-yl)-acetamide], the IC50 is below 100 nM in test [1] and 100 to 1000 nM in test [2].
Consider `COc1cc(C2CCN(CC(N)=O)CC2)ccc1Nc1ncc2ccc(-c3ccc(C)cc3N(C)S(C)(=O)=O)n2n1` [Example 1280, 2-[4-(4-{7-[2-(Methanesulfonyl-methyl-amino)-4-methyl-phenyl]-pyrrolo[2,1-f][1,2,4]triazin-2-ylamino}-3-methoxy-phenyl)-piperidin-1-yl]-acetamide], for which the IC50 was below 100 nM in test [1] and 100 to 1000 nM in test [2].
As to `COc1cc(C2CCNCC2)ccc1Nc1ncc2ccc(-c3ccc(C)cc3N(C)S(C)(=O)=O)n2n1` [Example 1281, N-{2-[2-(2-Methoxy-4-piperidin-4-yl-phenylamino)-pyrrolo[2,1-f][1,2,4]triazin-7-yl]-5-methyl-phenyl}-N-methyl-methanesulfonamide], the IC50 in test [1] is below 100 nM; in test [2], 100 to 1000 nM.
For the compound `COc1cc(C2CCN(CC(N)=O)CC2)ccc1Nc1ncc2ccc(-c3cc(F)ccc3N(C)S(C)(=O)=O)n2n1` [Example 1282, 2-[4-(4-{7-[5-Fluoro-2-(methanesulfonyl-methyl-amino)-phenyl]-pyrrolo[2,1-f][1,2,4]triazin-2-ylamino}-3-methoxy-phenyl)-piperidin-1-yl]-acetamide], the results for the IC50 in test [1] and in test [2] were below 100 nM and 1000 to 10000 nM, respectively.
Consider `COc1ccc(N(C)S(C)(=O)=O)c(-c2ccc3cnc(Nc4ccc(C5CCN(CC(N)=O)CC5)cc4OC)nn23)c1` [Example 1283, 2-[4-(4-{7-[2-(Methanesulfonyl-methyl-amino)-5-methoxy-phenyl]-pyrrolo[2,1-f][1,2,4]triazin-2-ylamino}-3-methoxy-phenyl)-piperidin-1-yl]-acetamide], for which the IC50 in test [1] is 100 to 1000 nM; in test [2], above 10000 nM.
Consider `c1c[nH]c(-c2ccc3cnc(Nc4ccc(N5CCOCC5)cc4)nn23)c1` [Example 1291, (4-Morpholin-4-yl-phenyl)-[7-(1H-pyrrol-2-yl)-pyrrolo[2,1-f][1,2,4]triazin-2-yl]-amine], for which the figures for the IC50 in test [1] and in test [2] were 1000 to 10000 nM and below 100 nM, respectively.
As for `CC(=O)Nc1cccc(Nc2ncc3ccc(-c4ccc[nH]4)n3n2)c1` [Example 1292, N-{3-[7-(1H-Pyrrol-2-yl)-pyrrolo[2,1-f][1,2,4]triazin-2-ylamino]-phenyl}-acetamide], the results for the IC50 in test [1] and in test [2] were 1000 to 10000 nM and below 100 nM, respectively.
In the same order, the values of `N#CCCn1cccc1-c1ccc2cnc(Nc3ccc(N4CCOCC4)cc3)nn12` [Example 1293, 3-{2-[2-(4-Morpholin-4-yl-phenylamino)-pyrrolo[2,1-f][1,2,4]triazin-7-yl]-pyrrol-1-yl}-propionitrile] are 100 to 1000 nM and below 100 nM.
In the same order, the values of `CC(=O)Nc1cccc(Nc2ncc3ccc(-c4cccn4CCC#N)n3n2)c1` [Example 1294, N-(3-{7-[1-(2-Cyano-ethyl)-1H-pyrrol-2-yl]-pyrrolo[2,1-f][1,2,4]triazin-2-ylamino}-phenyl)-acetamide] are 1000 to 10000 nM and below 100 nM.
`N#CCCn1cccc1-c1ccc2cnc(Nc3cccc(N4CCCC4=O)c3)nn12` [Example 1296, 3-(2-{2-[3-(2-oxo-pyrrolidin-1-yl)-phenylamino]-pyrrolo[2,1-f][1,2,4]triazin-7-yl}-pyrrol-1-yl)-propionitrile]: the IC50 is 1000 to 10000 nM in test [1] and below 100 nM in test [2].
As to `CC(C)(C)NS(=O)(=O)c1cccc(-c2ccc3cnc(Nc4ccc5nc(C(F)(F)F)[nH]c5c4)nn23)c1` [Example 1297, N-tert-Butyl-3-[2-(2-trifluoromethyl-3H-benzimidazol-5-ylamino)-pyrrolo[2,1-f][1,2,4]triazin-7-yl]-benzenesulfonamide], the IC50 was above 10000 nM in test [1] and below 100 nM in test [2].
